Results reported in US20090068299A1.

How the values were obtained:
ERβ [1] = biological target: T1, ERβ (Homo sapiens, UniProt Q92731); conditions: in the presence of ERβ
ERβ [2] = biological target: T1, ERβ; experiment: Repression of TNF-α activation of TNF-RE tkLuc in U2OS cells with ERβ; type: cell-based; design: expressed in transfected cells
TNF-RE tkLuc = experiment: Effect of antiestrogens on TNF-RE tkLuc; type: cell-based, human; conditions: for effect on the repression induced by E2: TNF-RE tkLuc; for activation of TNF-RE tkLuc: antiestrogens, in contrast to E2
ERβ [3] = biological target: T1, ERβ; experiment: ERE-tk-Luc luciferase activation in U2OS cells with ERβ; type: cell-based; design: expressed in transfected cells; host or cells: U2OS (human osteosarcoma); conditions: competition
[4] = system: estrogen receptor-positive breast cancer; conditions: five years of therapy; cited from earlier work
[5] = system: primary invasive breast cancer; conditions: women at high risk for breast cancer; cited from earlier work

T1 sequence (Q92731 whole entry): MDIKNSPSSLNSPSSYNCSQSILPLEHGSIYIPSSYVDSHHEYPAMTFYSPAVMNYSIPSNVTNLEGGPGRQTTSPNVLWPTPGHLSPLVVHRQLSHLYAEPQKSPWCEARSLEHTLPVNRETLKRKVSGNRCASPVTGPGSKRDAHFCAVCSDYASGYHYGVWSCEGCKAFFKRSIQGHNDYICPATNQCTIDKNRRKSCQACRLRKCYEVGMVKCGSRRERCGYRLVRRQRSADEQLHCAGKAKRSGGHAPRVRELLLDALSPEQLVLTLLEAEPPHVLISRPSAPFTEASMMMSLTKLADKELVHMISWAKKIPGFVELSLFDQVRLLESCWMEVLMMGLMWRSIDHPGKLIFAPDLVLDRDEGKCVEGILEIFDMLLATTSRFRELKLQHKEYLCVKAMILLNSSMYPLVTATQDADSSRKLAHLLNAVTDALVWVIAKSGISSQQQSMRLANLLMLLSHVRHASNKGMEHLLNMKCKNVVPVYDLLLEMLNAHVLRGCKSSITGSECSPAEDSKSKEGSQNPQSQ

| Structure (SMILES) | repression of TNF-α activation of TNF-RE tkLuc (ERβ [1]) | repression of TNF-α activation of TNF-RE (ERβ [2]) | effect on the repression induced by E2 (TNF-RE tkLuc) | activation of TNF-RE tkLuc (TNF-RE tkLuc) | stimulatory effect of Pueraria lobata on the ERE with ERβ in the presence of the SERM antagonist (FIG. 6) (ERβ [3]) | reduction of mortality from breast cancer [4] | reduction of the risk of recurrences [4] | reduction of the risk of primary invasive breast cancer [5] |
| --- | --- | --- | --- | --- | --- | --- | --- | --- |
| C[C@]12CC[C@@H]3c4ccc(O)cc4CC[C@H]3[C@@H]1CC[C@@H]2O [E2, estradiol] | 60-80% | 100% | – | – | – | – | – | – |
| C[C@]12CC[C@@H]3c4ccc(O)cc4C[C@@H](CCCCCCCCC[S+]([O-])CCCC(F)(F)C(F)(F)F)[C@H]3[C@@H]1CC[C@@H]2O (stereo partly drawn) [ICI 182, 780] | – | – | abolished the repression induced by E2 | 2 fold | – | – | – | – |
| O=C(c1ccc(OCCN2CCCCC2)cc1)c1c(-c2ccc(O)cc2)sc2cc(O)ccc12 [raloxifene] | – | – | abolished the repression induced by E2 | 2 fold | inhibited | – | – | – |
| CC/C(=C(\c1ccccc1)c1ccc(OCCN(C)C)cc1)c1ccccc1 [tamoxifen] | – | – | abolished the repression induced by E2 | 2 fold | – | 22% | 42% | 49% |
